US12649722B2, “Herbicidal cinnoline derivatives” (SYNGENTA CROP PROTECTION AG, priority 2020, dated 2026)

Experiments:
Type in all cases: in vivo
[1] = test system: Ipornoea hederacea (IPOHE); experiment: Pre-emergence Test, IPOHE; conditions: 1000 g/ha, evaluated after 13 days
ABUTH [2] = experiment: Pre-emergence Test, ABUTH; conditions: 1000 g/ha, evaluated after 13 days
[3] = test system: Amaranthus retoflexus (AMARE); experiment: Post-emergence Test, AMARE; conditions: sprayed after 8 days cultivation, 1000 g/ha, evaluated after 13 days
Experimental: (§1) Seeds of a variety of test species are sown in standard soil in pots (Amaranthus retoflexus (AMARE), Solarium nigrum (SOLNI), Setaria faberi (SETFA), Lolium perenne (LOLPE), Echinochloa crus-galli (ECHCG), Ipornoea hederacea (IPOHE)). After 8 days cultivation under controlled conditions in a glasshouse (at 24° C./16° C., day/night; 14 hours light; 65% humidity), the plants are sprayed with an aqueous spray solution derived from the formulation of the technical active ingredient in acetone/water (50:50) solution containing 0.5% Tween 20 (polyoxyethylene sorbitan monolaurate, CAS RN 9005-64-5). Compounds are applied at 1000 g/ha unless otherwise stated. The test plants are then grown in a glasshouse under controlled conditions in a glasshouse (at 24° C./16° C., day/night; 14 hours light; 65% humidity) and watered twice daily. After 13 days the test is evaluated for the percentage damage caused to the plant. The biological activities are shown in the following table on a five-point scale (5=81-100%; 4=61-80%; 3=41-60%; 2=21-40%; 1=10-20%; 0=0%; −=not tested).

Setaria faberi (SETFA) [4] = experiment: Post-emergence Test, SETFA; conditions: sprayed after 8 days cultivation, 1000 g/ha, evaluated after 13 days
Experimental: as §1

[5] = test system: Amaranthus retoflexus (AMARE); experiment: Pre-emergence Test, AMARE; conditions: 1000 g/ha, evaluated after 13 days
Setaria faberi (SETFA) [6] = experiment: Pre-emergence Test, SETFA; conditions: 1000 g/ha, evaluated after 13 days
ZEAMX [7] = experiment: Post-emergence Test, ZEAMX; conditions: sprayed after 8 days cultivation, 1000 g/ha, evaluated after 13 days
Experimental: [The procedure below names another target; the source lists this target under the same test.] as §1

ZEAMX [8] = experiment: Pre-emergence Test, ZEAMX; conditions: 1000 g/ha, evaluated after 13 days
[9] = test system: Ipornoea hederacea (IPOHE); experiment: Post-emergence Test, IPOHE; conditions: sprayed after 8 days cultivation, 1000 g/ha, evaluated after 13 days
Experimental: as §1

[10] = test system: Echinochloa crus-galli (ECHCG); experiment: Pre-emergence Test, ECHCG; conditions: 1000 g/ha, evaluated after 13 days
[11] = test system: Echinochloa crus-galli (ECHCG); experiment: Post-emergence Test, ECHCG; conditions: sprayed after 8 days cultivation, 1000 g/ha, evaluated after 13 days
Experimental: as §1

ABUTH [12] = experiment: Post-emergence Test, ABUTH; conditions: sprayed after 8 days cultivation, 1000 g/ha, evaluated after 13 days
Experimental: [The procedure below names another target; the source lists this target under the same test.] as §1

Row | Structure (SMILES) | percentage damage caused to the plant, IPOHE [1] | percentage damage caused to the plant, ABUTH (ABUTH [2]) | percentage damage caused to the plant, AMARE [3] | percentage damage caused to the plant, SETFA (Setaria faberi (SETFA) [4]) | percentage damage caused to the plant, AMARE [5] | percentage damage caused to the plant, SETFA (Setaria faberi (SETFA) [6]) | percentage damage caused to the plant, ZEAMX (ZEAMX [7]) | percentage damage caused to the plant, ZEAMX (ZEAMX [8]) | percentage damage caused to the plant, IPOHE [9] | percentage damage caused to the plant, ECHCG [10] | percentage damage caused to the plant, ECHCG [11] | percentage damage caused to the plant, ABUTH (ABUTH [12])
1 | O=C(O)c1nn(-c2ccc(OC(F)(F)F)cc2)c2cccc([N+](=O)[O-])c2c1=O [Compound P40, 5-nitro-4-oxo-1-[4-(trifluoromethoxy)phenyl] cinnoline-3-carboxylic acid] | 0 (0=0%) | 3 (3=41-60%) | 1 (1=10-20%) | 5 (5=81-100%) | 2 (2=21-40%) | 5 (5=81-100%) | 1 (1=10-20%) | 0 (0=0%) | 0 (0=0%) | 2 (2=21-40%) | 3 (3=41-60%) | –
2 | O=C(O)c1nn(-c2ccc(OC(F)(F)F)cc2)c2cccc(C(F)F)c2c1=O [Compound P37, 5-(difluoromethyl)-4-oxo-1-[4-(trifluoromethoxy)phenyl] cinnoline-3-carboxylic acid] | 0 (0=0%) | 0 (0=0%) | 1 (1=10-20%) | 2 (2=21-40%) | 0 (0=0%) | 0 (0=0%) | 1 (1=10-20%) | 0 (0=0%) | 1 (1=10-20%) | 0 (0=0%) | 2 (2=21-40%) | 0 (0=0%)
3 | O=C(O)c1nn(-c2ccc(OC(F)(F)F)cc2)c2cccc(-n3cc(Cl)cn3)c2c1=O [Compound P19] | 0 (0=0%) | 0 (0=0%) | 2 (2=21-40%) | 4 (4=61-80%) | 0 (0=0%) | 4 (4=61-80%) | 2 (2=21-40%) | 1 (1=10-20%) | 2 (2=21-40%) | 3 (3=41-60%) | 3 (3=41-60%) | 1 (1=10-20%)
4 | CCOC(=O)c1nn(-c2ccc(OC(F)(F)F)cc2)c2cccc(N3CCOCC3)c2c1=O [Compound P26, ethyl 5-morpholino-4-oxo-1-[4-(trifluoromethoxy)phenyl] cinnoline-3-carboxylate] | 0 (0=0%) | 0 (0=0%) | 0 (0=0%) | 0 (0=0%) | 0 (0=0%) | 0 (0=0%) | 0 (0=0%) | 0 (0=0%) | 0 (0=0%) | 0 (0=0%) | 1 (1=10-20%) | 0 (0=0%)
5 | O=C(O)c1nn(-c2ccc(OC(F)(F)F)cc2)c2cccc(N3CCCC3)c2c1=O [Compound P23, 4-oxo-5-pyrrolidin-1-yl-1-[4-(trifluoromethoxy)phenyl] cinnoline-3-carboxylic acid] | 0 (0=0%) | 0 (0=0%) | 0 (0=0%) | 0 (0=0%) | 0 (0=0%) | 0 (0=0%) | 0 (0=0%) | 0 (0=0%) | 0 (0=0%) | 0 (0=0%) | 0 (0=0%) | 0 (0=0%)
6 | CCOC(=O)c1nn(-c2ccc(OC(F)(F)F)cc2)c2cccc(-n3cc(C(F)(F)F)cn3)c2c1=O [Compound P31, ethyl 4-oxo-1-[4-(trifluoromethoxy)phenyl]-5-[4-(trifluoromethyl)pyrazol-1-yl]cinnoline-3-carboxylate] | 0 (0=0%) | 0 (0=0%) | 0 (0=0%) | 0 (0=0%) | 0 (0=0%) | 0 (0=0%) | 0 (0=0%) | 0 (0=0%) | 0 (0=0%) | 0 (0=0%) | 0 (0=0%) | 0 (0=0%)
7 | O=C(O)c1nn(-c2ccc(OC(F)(F)F)cc2)c2cccc(-n3cc(C(F)(F)F)cn3)c2c1=O [Compound P22, 4-oxo-1-[4-(trifluoromethoxy)phenyl]-5-[4-(trifluoromethyl)pyrazol-1-yl]cinnoline-3-carboxylic acid] | 0 (0=0%) | 0 (0=0%) | 4 (4=61-80%) | 2 (2=21-40%) | 2 (2=21-40%) | 0 (0=0%) | 2 (2=21-40%) | 0 (0=0%) | 1 (1=10-20%) | 0 (0=0%) | 0 (0=0%) | 1 (1=10-20%)
8 | COc1ccc(-n2nc(C(=O)O)c(=O)c3c(C#N)cccc32)cc1OC [Compound P41, 5-cyano-1-(3,4-dimethoxyphenyl)-4-oxo-cinnoline-3-carboxylic acid] | 0 (0=0%) | 0 (0=0%) | 0 (0=0%) | 2 (2=21-40%) | 0 (0=0%) | 0 (0=0%) | 0 (0=0%) | 0 (0=0%) | 1 (1=10-20%) | 0 (0=0%) | – | 1 (1=10-20%)
9 | CCOC(=O)c1nn(-c2ccc(OC(F)(F)F)cc2)c2cccc(-c3cc(C(F)F)on3)c2c1=O [Compound P12, ethyl 5-[5-(difluoromethyl)isoxazol-3-yl]-4-oxo-1-[4-(trifluoromethoxy)phenyl] cinnoline-3-carboxylate] | 0 (0=0%) | 0 (0=0%) | 0 (0=0%) | 2 (2=21-40%) | 0 (0=0%) | 0 (0=0%) | 1 (1=10-20%) | – | 2 (2=21-40%) | 0 (0=0%) | 0 (0=0%) | 1 (1=10-20%)
10 | CCOC(=O)c1nn(-c2ccc(OC(F)(F)F)cc2)c2cccc([N+](=O)[O-])c2c1=O [Compound P39, ethyl 5-nitro-4-oxo-1-[4-(trifluoromethoxy)phenyl] cinnoline-3-carboxylate] | 0 (0=0%) | 1 (1=10-20%) | 0 (0=0%) | 3 (3=41-60%) | 0 (0=0%) | 5 (5=81-100%) | 0 (0=0%) | 0 (0=0%) | 0 (0=0%) | 2 (2=21-40%) | 3 (3=41-60%) | –
11 | CCOC(=O)c1nn(-c2ccc(OC)c(OC)c2)c2cccc(C#N)c2c1=O [Compound P42, ethyl 5-cyano-1-(3,4-dimethoxyphenyl)-4-oxo-cinnoline-3-carboxylate] | 0 (0=0%) | 0 (0=0%) | 0 (0=0%) | 0 (0=0%) | 0 (0=0%) | 0 (0=0%) | 0 (0=0%) | 0 (0=0%) | 0 (0=0%) | 0 (0=0%) | – | 0 (0=0%)
